Assay results published in PubChem BioAssay AID330 (DTP/NCI, 2004).
Values joined by “and” are separate entries in the source; they are usually repeats but may differ in a detail not shown here. Identical values can stand only once. Toxic doses and inconclusive results are not listed. The calls were made as follows: active = survival T/C of 150% or more; inactive = T/C below 125% in these data.

Test system: P388 leukemia ip, CD2F1 mice, survival T/C
Assay: NCI In Vivo Anticancer Drug Screen. Data for tumor model P388 Leukemia (intraperitoneal) in CD2F1 (CDF1) mice
Conditions: endpoint: median survival time, higher = longer survival
How it was run: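 Mice carrying the transplanted tumor received test compound or vehicle. Survival was recorded in each group, and the value is the treated-group measurement divided by that of the vehicle-treated control group.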

[1] = dose: 60.0 mg/kg/injection, schedule: Q01DX005 (ip), vehicle: saline with Tween-80
[2] = dose: 120.0 mg/kg/injection, schedule: Q01DX005 (ip), vehicle: saline with Tween-80
[3] = dose: 240.0 mg/kg/injection, schedule: Q01DX005 (ip), vehicle: saline with Tween-80
[4] = dose: 50.0 mg/kg/injection, schedule: Q01DX009 (ip), vehicle: saline with Tween-80
[5] = dose: 100.0 mg/kg/injection, schedule: Q01DX009 (ip), vehicle: saline with Tween-80
[6] = dose: 200.0 mg/kg/injection, schedule: Q01DX009 (ip), vehicle: saline with Tween-80
[7] = dose: 50.0 mg/kg/injection, schedule: Q01DX005 (ip), vehicle: saline with Tween-80
[8] = dose: 100.0 mg/kg/injection, schedule: Q01DX005 (ip), vehicle: saline with Tween-80
[9] = dose: 200.0 mg/kg/injection, schedule: Q01DX005 (ip), vehicle: saline with Tween-80
[10] = dose: 12.5 mg/kg/injection, schedule: Q04DX003 (ip), vehicle: saline
[11] = dose: 25.0 mg/kg/injection, schedule: Q04DX003 (ip), vehicle: saline
[12] = dose: 50.0 mg/kg/injection, schedule: Q04DX003 (ip), vehicle: saline
[13] = dose: 12.5 mg/kg/injection, schedule: Q01DX009 (ip), vehicle: saline
[14] = dose: 25.0 mg/kg/injection, schedule: Q01DX009 (ip), vehicle: saline
[15] = dose: 50.0 mg/kg/injection, schedule: Q01DX009 (ip), vehicle: saline
[16] = dose: 100.0 mg/kg/injection, schedule: Q01DX009 (ip), vehicle: saline
[17] = dose: 200.0 mg/kg/injection, schedule: Q01DX009 (ip), vehicle: saline

Measured: T/C

O=C1CSC(c2cccc(Cl)c2Cl)N1c1nncs1 (stereo not drawn)
inactive: dose: 100.0 mg/kg/injection, schedule: Q04DX002 (ip), vehicle: saline with Tween-80 112 % of control | dose: 200.0 mg/kg/injection, schedule: Q04DX002 (ip), vehicle: saline with Tween-80 94 % of control | dose: 400.0 mg/kg/injection, schedule: Q04DX002 (ip), vehicle: saline with Tween-80 97 % of control

Cc1cc(C)[n+]([O-])c(C)c1
inactive: [1] 101 % of control | dose: 60.0 mg/kg/injection, schedule: Q01DX005 (ip), vehicle: saline 105 % of control | [2] 99 % of control | dose: 120.0 mg/kg/injection, schedule: Q01DX005 (ip), vehicle: saline 102 % of control | [3] 97 % of control | dose: 240.0 mg/kg/injection, schedule: Q01DX005 (ip), vehicle: saline 105 % of control

CCCCCCCCCCCC(=O)OC1CCC2(C)C(=CCC3C2CCC2(C)C(C(C)CCC(CC)C(C)C)CCC32)C1 (stereo not drawn)
inactive: [4] 104 % of control | [5] 95 % of control | [6] 90 % of control

CNC(=O)OC1/C(C)=C\C(C)C(O)C(OC)CC(C)CC2=C(OC)C(=O)C=C(C2=O)N(C)C(=O)/C(C)=C/C=C\C1OC (stereo not drawn)
inactive: dose: 3.12 mg/kg/injection, schedule: Q01DX009 (ip), vehicle: DMSO 110 % of control and 98 % of control | dose: 6.25 mg/kg/injection, schedule: Q01DX009 (ip), vehicle: DMSO 99 % of control and 109 % of control and 110 % of control | dose: 12.5 mg/kg/injection, schedule: Q01DX009 (ip), vehicle: DMSO 104 % of control and 122 % of control and 123 % of control | dose: 25.0 mg/kg/injection, schedule: Q01DX009 (ip), vehicle: DMSO 109 % of control and 115 % of control and 122 % of control

CN(C)CCN(C)CCc1ccccn1
inactive: dose: 100.0 mg/kg/injection, schedule: Q01DX001 (ip), vehicle: saline 109 % of control | dose: 200.0 mg/kg/injection, schedule: Q01DX001 (ip), vehicle: saline 102 % of control | dose: 400.0 mg/kg/injection, schedule: Q01DX001 (ip), vehicle: saline 105 % of control

CSC(SC)(SC)C(=O)N(C)C
inactive: dose: 25.0 mg/kg/injection, schedule: Q01DX009 (ip), vehicle: saline with Tween-80 95 % of control | [4] 93 % of control | [5] 96 % of control

O=c1c2[nH]c3ccccc3sc=2c(=O)n1-c1cccc(Cl)c1
inactive: [7] 102 % of control | [8] 102 % of control | [9] 105 % of control

CSC(C)(C(=N)C#N)N(C)C (stereo not drawn)
inactive: [10] 103 % of control | [11] 100 % of control | [12] 104 % of control

O=C1NC(=O)C2(CCc3ccccc3C2)N1 (stereo not drawn)
inactive: [4] 100 % of control | [5] 100 % of control | [6] 96 % of control | dose: 400.0 mg/kg/injection, schedule: Q01DX009 (ip), vehicle: saline with Tween-80 97 % of control

CC(=O)OCC1OC(n2nnc3c(=O)[nH]cnc32)C(OC(C)=O)C(OC(C)=O)C1OC(C)=O (stereo not drawn)
inactive: dose: 100.0 mg/kg/injection, schedule: Q01DX001 (ip), vehicle: saline with Tween-80 96 % of control | dose: 200.0 mg/kg/injection, schedule: Q01DX001 (ip), vehicle: saline with Tween-80 102 % of control | dose: 400.0 mg/kg/injection, schedule: Q01DX001 (ip), vehicle: saline with Tween-80 94 % of control

Cc1cc(Cl)ccc1NC(=O)Oc1ccc(C#N)cc1
inactive: [1] 90 % of control | [2] 90 % of control | [3] 90 % of control

O=C(Cn1ccnc1[N+](=O)[O-])N(CCO)CCO
inactive: dose: 6.25 mg/kg/injection, schedule: Q01DX009 (ip), vehicle: saline 102 % of control | [13] 111 % of control | [14] 111 % of control | [15] 105 % of control | [16] 105 % of control | [17] 102 % of control | dose: 400.0 mg/kg/injection, schedule: Q01DX009 (ip), vehicle: saline 105 % of control | dose: 800.0 mg/kg/injection, schedule: Q01DX009 (ip), vehicle: saline 102 % of control

CC(=N)C1C(=O)C=C(C)OC1=O (stereo not drawn)
inactive: [15] 86 % of control | [16] 88 % of control | [17] 88 % of control

O=CC1CO1 (stereo not drawn)
inactive: [13] 109 % of control | [10] 112 % of control | [14] 118 % of control | [11] 104 % of control | [12] 116 % of control

O=C(NCCCl)NCCCl
inactive: dose: 10.0 mg/kg/injection, schedule: Q01DX009 (ip), vehicle: saline 105 % of control and 108 % of control | dose: 20.0 mg/kg/injection, schedule: Q01DX009 (ip), vehicle: saline 101 % of control and 102 % of control | dose: 40.0 mg/kg/injection, schedule: Q01DX009 (ip), vehicle: saline 104 % of control and 108 % of control | dose: 80.0 mg/kg/injection, schedule: Q01DX009 (ip), vehicle: saline 102 % of control and 109 % of control | dose: 160.0 mg/kg/injection, schedule: Q01DX009 (ip), vehicle: saline 101 % of control and 104 % of control | dose: 320.0 mg/kg/injection, schedule: Q01DX009 (ip), vehicle: saline 102 % of control and 106 % of control

Cc1ccc(Oc2ccc([N+](=O)[O-])c3[nH]c4ccccc4c(=O)c23)cc1
inactive: [4] 94 % of control | [5] 111 % of control | [6] 113 % of control

COc1ccc2[nH]c(C)c(CN(C(C)=O)C(C)=O)c(=O)c2c1
inactive: [1] 103 % of control | [2] 112 % of control | [3] 86 % of control

COc1cc2c(cc1OC)[C@H]1C(=O)c3cc4c(cc3[C@H]1N(C)C2=O)OCO4
inactive: dose: 12.5 mg/kg/injection, schedule: Q01DX005 (ip), vehicle: distilled water + Tween-80 94 % of control | dose: 25.0 mg/kg/injection, schedule: Q01DX005 (ip), vehicle: distilled water + Tween-80 96 % of control | dose: 50.0 mg/kg/injection, schedule: Q01DX005 (ip), vehicle: distilled water + Tween-80 91 % of control

CCNNC(=O)[C@@H]1[C@H](c2cc(OC)c(OC)c(OC)c2)c2cc3c(cc2[C@H](O)[C@H]1CO)OCO3
inactive: dose: 100.0 mg/kg/injection, schedule: Q04DX003 (ip), vehicle: saline with Tween-80 109 % of control | dose: 200.0 mg/kg/injection, schedule: Q04DX003 (ip), vehicle: saline with Tween-80 113 % of control | dose: 400.0 mg/kg/injection, schedule: Q04DX003 (ip), vehicle: saline with Tween-80 104 % of control

C=CC(=O)NC(C)C(=O)O (stereo not drawn)
inactive: [15] 100 % of control | [16] 99 % of control | [17] 107 % of control

N/C(=N\C(=O)OCc1ccccc1)NC(=O)OCc1ccccc1
inactive: dose: 25.0 mg/kg/injection, schedule: Q01DX009 (ip), vehicle: Klucel (hydroxypropylcellulose) (HPC) 99 % of control and 109 % of control | dose: 50.0 mg/kg/injection, schedule: Q01DX009 (ip), vehicle: Klucel (hydroxypropylcellulose) (HPC) 104 % of control and 105 % of control | dose: 100.0 mg/kg/injection, schedule: Q01DX009 (ip), vehicle: Klucel (hydroxypropylcellulose) (HPC) 103 % of control and 104 % of control | dose: 200.0 mg/kg/injection, schedule: Q01DX009 (ip), vehicle: Klucel (hydroxypropylcellulose) (HPC) 99 % of control and 100 % of control | dose: 400.0 mg/kg/injection, schedule: Q01DX009 (ip), vehicle: Klucel (hydroxypropylcellulose) (HPC) 99 % of control and 93 % of control

CSC(C(O)C(O)C(O)C(O)CO)n1cnc2c(=S)nc[nH]c21 (stereo not drawn)
inactive: [7] 99 % of control | [8] 96 % of control | [9] 99 % of control
